Data: patent US20230144211A1, “ANTIFOLATE LINKER-DRUGS AND ANTIBODY-DRUG CONJUGATES” (Byondis B.V., priority 2020, published 2023)

Assays:
Assay in all cases: In vitro cell viability assay (CellTiter-Glo, 6 days)
Assay type in all cases: cell-based, human
SK-BR-3 cells = test system: SK-BR-3 cells
Protocol: (§1) FaDu, BxPC-3, HeLa, MV4-11, and RAJI cell lines were obtained from Deutsche Sammlung von Mikroorganismen und Zellkulturen (Leipzig, Germany). Jurkat NucLight Red cells were obtained from Essen BioScience Inc. (Ann Arbor, Mich., USA). SK-BR-3 and SK-OV-3 cells were cultured in McCoys 5A medium (Lonza; Walkersville, Md., USA) supplemented with 10% v/w Fetal Bovine Serum (FBS), Heat-inactivated (HI) (Gibco-Life Technologies; Carlsbad, Calif.) and 80 U/mL Pen/Strep (Gibco-Life Technologies), at 37° C. in a humidified incubator under 5% CO2 atmosphere. SW-620 cells were similarly maintained in RPMI 1640 medium (Lonza), containing 10% v/w FBS HI and 80 U/mL Pen/Strep. A-549 cells were similarly maintained in F-12K Nutrient Mixture (1×) (Gibco-Life Technologies) media supplemented with 80 U/mL Pen/Strep and 5% v/w FBS, which was Qualified (Q) (Gibco-Life Technologies). BT-474 and AU-565 cells were similarly maintained in RPMI 1640 medium (Lonza), containing 10% v/w FBS, which was Qualified (Q) (Gibco-Life Technologies), and 80 U/mL Pen/Strep. […] Jurkat NucLight Red cells were similarly maintained in RPMI 1640 medium (Lonza), containing 10% v/w FBS HI, 80 U/mL Pen/Strep and 0.5 μg/mL Puromycin (Gibco-Life Technologies). FaDu cells were cultured in EMEM medium (Lonza) supplemented with 10% v/w FBS HI (Gibco-Life Technologies), 1× GlutaMAX (Gibco-Life Technologies), and 80 U/mL Pen/Strep (Gibco-Life Technologies), at 37° C. in a humidified incubator under 5% CO2 atmosphere.
(§2) After an overnight incubation, 10 serial log 10 dilutions of the free drugs were made in DMSO (Sigma-Aldrich). These free drug dose-response curves were 10-times further diluted in complete growth medium. For the ADCs according to the invention 10 serial log 10 dilutions were made in complete growth medium. 10 μL of a composition comprising a free drug or an ADC according to the invention was added to the assay plate (final DMSO content for free drugs was 1%). […] […] Percentage cell survival was calculated by dividing the measured luminescence for each free drug or ADC according to the concentration with the average mean of untreated cells (1% or 0.1% DMSO control (for free drugs) or 100% complete growth medium (for ADCs)) multiplied by 100.
(§3) Curves were fitted by non-linear regression using the sigmoidal dose-response equation with variable slope (four parameters) using curve-fitting software (GraphPad Prism, version 9.4.0 for Windows, GraphPad, San Diego, Calif. or Electronic Laboratory Notebook (ELN) add-in BioAssay, version 19.1.0.0218, Perkin Elmer, Waltham, Mass.). Relative IC50 values were calculated as the concentration that gives a response halfway between bottom and top of the curve, when using a 4-parameter logistic fit. Data were reported as mean IC50 value of at least one experiment performed in duplicate.

AU-565 cells = test system: AU-565 cells
Protocol: as §1, §2, §3

[1] = test system: Jurkat NucLight Red cells; conditions: free antifolate drugs
Protocol: as §1
After an overnight incubation, 10 serial log 10 dilutions of the free drugs were made in DMSO (Sigma-Aldrich). These free drug dose-response curves were 10-times further diluted in complete growth medium. For the ADCs according to the invention 10 serial log 10 dilutions were made in complete growth medium. 10 μL of a composition comprising a free drug or an ADC according to the invention was added to the assay plate (final DMSO content for free drugs was 1%). […] Cell viability was assessed after 6 days using a luminescent assay kit (CellTiter-Glo™ (CTG), Promega Corporation) according to the manufacturer's instructions. Percentage cell survival was calculated by dividing the measured luminescence for each free drug or ADC according to the concentration with the average mean of untreated cells (1% or 0.1% DMSO control (for free drugs) or 100% complete growth medium (for ADCs)) multiplied by 100.
as §3

[2] = Homo sapiens, SK-BR-3, free antifolate drugs, Table 1b, # no full dose-response curve
[3] = Homo sapiens, AU565, free antifolate drugs, Table 1b
[4] = Homo sapiens, SK-BR-3, free antifolate drugs, Table 1c
[5] = Homo sapiens, AU565, free antifolate drugs, Table 1c
[6] = free antifolate drugs, Table 1c

Structure (SMILES)	IC50 (SK-BR-3 cells; [2])	IC50 ([1]; Homo sapiens, Jurkat, Table 1b)	IC50 (SK-BR-3 cells; [4])	IC50 ([1]; Homo sapiens, Jurkat, Table 1c)	IC50 (SK-BR-3 cells; [6])	IC50 ([1]; Table 1c)	IC50 (AU-565 cells; [3])	IC50 (AU-565 cells; [5])	IC50 (AU-565 cells; [6])
Nc1ccc(C(=O)NCCC[C@H](NC(=O)c2ccc(NCc3cnc4nc(N)nc(N)c4n3)cc2O)C(=O)O)c(-c2nn[nH]n2)c1 [AFD-004]			0.67 nM	0.68 nM				0.37 nM	
C#CCN(Cc1cnc2nc(N)nc(N)c2n1)c1ccc(C(=O)N[C@@H](CCCNC(=O)c2ccc(N)cc2-c2nn[nH]n2)C(=O)O)cc1 [AFD-003]	2.09 nM	1.4 nM					0.98 nM		
Nc1ccc(C(=O)NCCC[C@H](NC(=O)c2ccc(SCc3cnc4nc(N)nc(N)c4n3)cc2)C(=O)O)c(-c2nn[nH]n2)c1 [AFD-005]			~22 nM	5.6 nM				~8 nM	
Nc1ccc(C(=O)NCCC[C@H](NC(=O)c2ccc(NCc3cnc4nc(N)nc(N)c4n3)c(O)c2)C(=O)O)c(-c2nn[nH]n2)c1 [AFD-002]	20 nM	15 nM					14 nM		
Nc1ccc(C(=O)NCCC[C@H](NC(=O)c2ccc(OCc3cnc4nc(N)nc(N)c4n3)cc2)C(=O)O)c(-c2nn[nH]n2)c1 [AFD-001]	25 nM	4.92 nM					9.18 nM		
Nc1ccc(C(=O)NCCC[C@H](NC(=O)c2ccc(NCc3cnc4nc(N)nc(N)c4n3)c(N)c2)C(=O)O)c(-c2nn[nH]n2)c1 [AFD-006]			5.15 nM	5.98 nM				2.8 nM	

More lines, main results first:

IC50 (SK-BR-3 cells; [2])	IC50 ([1]; Homo sapiens, Jurkat, Table 1b)	IC50 (SK-BR-3 cells; [4])	IC50 ([1]; Homo sapiens, Jurkat, Table 1c)	IC50 (SK-BR-3 cells; [6])	IC50 ([1]; Table 1c)	Structure (SMILES)	IC50 (AU-565 cells; [3])	IC50 (AU-565 cells; [5])	IC50 (AU-565 cells; [6])
2.15 nM	1.19 nM					COc1cc(C(=O)N[C@@H](CCCNC(=O)c2ccc(N)cc2-c2nnn[nH]2)C(=O)O)ccc1NCc1cnc2nc(N)nc(N)c2n1 [XT132, (S)-5-(4-Amino-2-(1H-tetrazol-5-yl)benzamido)-2-(4-(((2,4-diaminopteridin-6-yl)methyl)amino)-3-methoxybenzamido)pentanoic acid]	0.97 nM		
2.91 nM	5.01 nM					Nc1ccc(C(=O)NCCC[C@H](NC(=O)c2ccc(NCc3ccc4nc(N)nc(N)c4c3Cl)s2)C(=O)O)c(-c2nnn[nH]2)c1 [XT126, (S)-5-(4-Amino-2-(1H-tetrazol-5-yl)benzamido)-2-(5-(((2,4-diamino-5-chloroquinazolin-6-yl)methyl)amino)thiophene-2-carboxamido)pentanoic acid]	2.37 nM		
		2.4 nM	2.31 nM			Nc1ccc(C(=O)NCCC[C@H](NC(=O)c2ccc(NCc3cnc4nc(N)nc(N)c4n3)cc2N)C(=O)O)c(-c2nnn[nH]2)c1 [AFD-010]		1.17 nM	
				~100 nM	~30 nM	CN(Cc1cnc2nc(N)nc(N)c2n1)c1ccc(C(=O)N[C@@H](CCCNC(=O)c2ccc(N)cc2-c2nn[nH]n2)C(=O)O)s1 [XC5, (S)-5-(4-amino-2-(2H-tetrazol-5-yl)benzamido)-2-(5-(((2,4-diaminopteridin-6-yl)methyl)(methyl)amino)thiophene-2-carboxamido)pentanoic acid]			~28 nM
		2.82 nM	1.96 nM			Nc1ccc(C(=O)NCCC[C@H](NC(=O)c2ccc3c(ccn3Cc3cnc4nc(N)nc(N)c4n3)c2)C(=O)O)c(-c2nn[nH]n2)c1 [AFD-009]		1.15 nM	
		1.5 nM	0.87 nM			Nc1ccc(C(=O)NCCC[C@H](NC(=O)c2ccc3c(c2)CCN3Cc2cnc3nc(N)nc(N)c3n2)C(=O)O)c(-c2nn[nH]n2)c1 [AFD-008]		0.76 nM	
		1.06 nM	2.01 nM			Nc1ccc(C(=O)NCCC[C@H](NC(=O)c2ccc3c(c2)CCCN3Cc2cnc3nc(N)nc(N)c3n2)C(=O)O)c(-c2nn[nH]n2)c1 [AFD-007]		0.68 nM	
0.57 nM	0.61 nM	0.78 nM	0.71 nM			Nc1ccc(C(=O)NCCC[C@H](NC(=O)c2ccc(CCc3cnc4nc(N)nc(N)c4n3)cc2)C(=O)O)c(-c2nnn[nH]2)c1 [XT128, (S)-5-(4-Amino-2-(1H-tetrazol-5-yl)benzamido)-2-(4-(2-(2,4-diaminopteridin-6-yl)ethyl)benzamido)pentanoic acid]	0.34 nM	0.36 nM	
